Results published in paper PMC4854315, “Discovery of a novel allosteric inhibitor-binding site in ERK5: comparison with the canonical kinase hinge ATP-binding site” (Acta Crystallographica. Section D, Structural Biology, 2016).
Like-named read-outs stand apart in the source and are kept apart here.

Legend:
recombinant human ERK5 = molecular target: T1, recombinant human ERK5 (Homo sapiens, UniProt Q13164); assay: TR-FRET (LANCE Ultra) biochemical assay of ERK5 kinase activity
T1 construct: Catalytically active kinase domain of recombinant human ERK5 enzyme was purchased from Carna Biosciences; purchased Carna Biosciences
Method: Catalytically active kinase domain of recombinant human ERK5 enzyme was purchased from Carna Biosciences. […] The inhibitory potency of compounds against ERK5 was evaluated using the LANCE Ultra technology from PerkinElmer according to the manufacturer’s instructions. Briefly, 3 µl of different concentrations of ATP and 100 nM ULight-eIF4E-binding protein 1 (Thr37/46) peptide (Perkin-Elmer catalogue No. TRF0128) were incubated in the presence of serially diluted compound or DMSO control at room temperature in 384-well Greiner white polystyrene assay plates. The reaction was initiated by the addition of 3 µl of 10 nM kinase. The assay buffer consisted of 1 mM DTT, 10 mM MgCl2, 1 mM EGTA, 0.01%(v/v) Tween 20 in 50 mM HEPES pH 7.5. After 60 min incubation, the reaction was stopped by the addition of 6 µl stop/detection reagent mixture consisting of 20 mM EDTA and 4 nM Eu-anti-phospho-eIF4E-binding protein 1 (Thr37/46) antibody (PerkinElmer catalogue No. TRF0216) diluted in detection buffer. The plates were incubated for 1 h before the fluorescence was measured at 615 and 665 nm with an excitation wavelength of 320 nm using an EnVision Multilabel Reader from Perkin-Elmer in time-resolved fluorescence resonance energy transfer (TR-FRET) mode. The calculated signal ratio at 665/615 nm is proportional to the kinase activity. The concentration of compound producing 50% inhibition of the kinase activity (IC50) was calculated by using GraphPad Prism to fit the data to a symmetrical sigmoidal curve.

SGKL (SGK3) = molecular target: T2, SGKL (SGK3) (Homo sapiens, UniProt Q96BR1); assay: Z'-LYTE kinase panel; format: biochemical
T2 construct: purchased ThermoFisher (SelectScreen, Z'-LYTE)
T2 sequence (Q96BR1 1-496): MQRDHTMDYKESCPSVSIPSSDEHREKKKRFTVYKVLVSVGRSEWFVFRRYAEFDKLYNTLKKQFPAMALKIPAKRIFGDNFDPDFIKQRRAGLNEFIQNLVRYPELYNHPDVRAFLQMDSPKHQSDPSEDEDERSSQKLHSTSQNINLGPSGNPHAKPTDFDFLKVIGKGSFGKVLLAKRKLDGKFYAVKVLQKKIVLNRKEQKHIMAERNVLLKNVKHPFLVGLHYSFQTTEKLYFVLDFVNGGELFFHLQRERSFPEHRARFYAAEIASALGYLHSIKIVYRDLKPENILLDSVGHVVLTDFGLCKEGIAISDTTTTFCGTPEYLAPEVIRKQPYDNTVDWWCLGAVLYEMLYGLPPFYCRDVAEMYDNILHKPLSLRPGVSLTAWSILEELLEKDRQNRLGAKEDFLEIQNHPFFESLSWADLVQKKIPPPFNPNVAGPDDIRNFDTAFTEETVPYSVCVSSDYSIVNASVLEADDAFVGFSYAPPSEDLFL
Summary of the method: (§1)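 Screened at 10 µM against a 225-kinase panel; the Z′-LYTE standard assay gave percentage inhibition values.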

BTK = molecular target: T3, BTK (Homo sapiens, UniProt Q06187); assay: Z'-LYTE kinase panel; format: biochemical
T3 construct: purchased ThermoFisher (SelectScreen, Z'-LYTE)
Summary of the method: as §1

BLK = molecular target: T4, BLK (Homo sapiens, UniProt P51451); assay: Z'-LYTE kinase panel; format: biochemical
T4 construct: purchased ThermoFisher (SelectScreen, Z'-LYTE)
Summary of the method: as §1

TXK = molecular target: T5, TXK (Homo sapiens, UniProt P42681); assay: Z'-LYTE kinase panel; format: biochemical
T5 construct: purchased ThermoFisher (SelectScreen, Z'-LYTE)
T5 sequence (P42681 1-527): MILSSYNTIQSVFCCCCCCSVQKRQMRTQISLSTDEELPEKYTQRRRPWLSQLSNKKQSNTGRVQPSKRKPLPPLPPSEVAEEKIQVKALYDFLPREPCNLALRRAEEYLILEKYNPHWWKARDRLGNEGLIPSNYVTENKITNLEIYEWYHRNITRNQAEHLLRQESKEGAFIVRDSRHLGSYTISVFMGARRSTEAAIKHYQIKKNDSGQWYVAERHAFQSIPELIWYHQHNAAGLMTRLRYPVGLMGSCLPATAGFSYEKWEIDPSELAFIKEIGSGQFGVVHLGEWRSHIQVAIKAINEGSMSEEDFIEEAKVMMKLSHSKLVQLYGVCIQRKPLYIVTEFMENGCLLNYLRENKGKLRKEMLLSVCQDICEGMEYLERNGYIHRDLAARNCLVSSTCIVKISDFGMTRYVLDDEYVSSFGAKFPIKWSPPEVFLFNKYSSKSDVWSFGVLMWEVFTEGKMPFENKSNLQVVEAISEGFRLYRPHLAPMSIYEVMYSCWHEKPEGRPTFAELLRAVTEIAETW
Summary of the method: as §1

NEK6 = molecular target: T6, NEK6 (Homo sapiens, UniProt Q9HC98); assay: Z'-LYTE kinase panel; format: biochemical
T6 construct: purchased ThermoFisher (SelectScreen, Z'-LYTE)
Summary of the method: as §1

GRK5 = molecular target: T7, GRK5 (Homo sapiens, UniProt P34947); assay: Z'-LYTE kinase panel; format: biochemical
T7 construct: purchased ThermoFisher (SelectScreen, Z'-LYTE)
Summary of the method: as §1

MAP4K5 (KHS1) = molecular target: T8, MAP4K5 (KHS1) (Homo sapiens, UniProt Q9Y4K4); assay: Z'-LYTE kinase panel; format: biochemical
T8 construct: purchased ThermoFisher (SelectScreen, Z'-LYTE)
Summary of the method: as §1

[1] = system: 225 kinases in the ThermoFisher standard kinase panel; assay: Kinase-panel activity screen, whole panel; format: biochemical; conditions: 10 µM compound; for Kinase selectivity profile in words: panel of 225 kinases
Method: Compounds 2, 3 and 5 were tested for activity against the 225 kinases in the ThermoFisher standard kinase panel. The standard Z′-LYTE assay protocol (ThermoFisher) was used to measure the percentage inhibition at 10 µM compound concentration (details are provided in the supporting information).

ERK5 signalling = system: ERK5 signalling; set-up: method as in Gavine et al., 2015; conditions: HEK293 cell line stably co-expressing MEK5CA and ERK5; ref Gavine et al., 2015; cited from earlier work
[2] = TR-FRET enzymatic assay, phosphorylated ERK5, read-out: ERK5 IC50

T7 sequence (P34947 whole entry): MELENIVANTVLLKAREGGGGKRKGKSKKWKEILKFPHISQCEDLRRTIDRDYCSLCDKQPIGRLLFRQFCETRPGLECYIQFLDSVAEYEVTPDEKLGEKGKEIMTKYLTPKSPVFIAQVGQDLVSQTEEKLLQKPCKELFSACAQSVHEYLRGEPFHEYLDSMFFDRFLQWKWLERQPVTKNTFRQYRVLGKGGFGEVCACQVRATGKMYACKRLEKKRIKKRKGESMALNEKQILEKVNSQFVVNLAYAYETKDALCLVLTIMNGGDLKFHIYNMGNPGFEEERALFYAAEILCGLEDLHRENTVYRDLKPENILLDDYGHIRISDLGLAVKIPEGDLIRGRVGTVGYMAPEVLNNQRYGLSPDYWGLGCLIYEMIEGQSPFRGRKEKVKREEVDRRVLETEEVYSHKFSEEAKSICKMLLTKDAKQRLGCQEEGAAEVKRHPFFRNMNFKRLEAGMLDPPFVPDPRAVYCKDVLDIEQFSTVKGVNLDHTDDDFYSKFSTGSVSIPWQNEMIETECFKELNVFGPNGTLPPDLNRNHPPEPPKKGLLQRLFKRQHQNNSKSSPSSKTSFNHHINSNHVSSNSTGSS
T6 sequence (Q9HC98 whole entry): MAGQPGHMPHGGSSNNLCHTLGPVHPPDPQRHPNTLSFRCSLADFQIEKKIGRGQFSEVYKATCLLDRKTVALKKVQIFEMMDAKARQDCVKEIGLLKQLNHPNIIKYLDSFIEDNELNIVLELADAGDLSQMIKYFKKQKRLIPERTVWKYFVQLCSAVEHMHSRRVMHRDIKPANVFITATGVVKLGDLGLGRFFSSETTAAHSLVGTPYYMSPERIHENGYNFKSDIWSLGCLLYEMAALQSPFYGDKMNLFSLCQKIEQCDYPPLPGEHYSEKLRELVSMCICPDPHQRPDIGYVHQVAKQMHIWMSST
T1 sequence (Q13164 55-347 limits assumed): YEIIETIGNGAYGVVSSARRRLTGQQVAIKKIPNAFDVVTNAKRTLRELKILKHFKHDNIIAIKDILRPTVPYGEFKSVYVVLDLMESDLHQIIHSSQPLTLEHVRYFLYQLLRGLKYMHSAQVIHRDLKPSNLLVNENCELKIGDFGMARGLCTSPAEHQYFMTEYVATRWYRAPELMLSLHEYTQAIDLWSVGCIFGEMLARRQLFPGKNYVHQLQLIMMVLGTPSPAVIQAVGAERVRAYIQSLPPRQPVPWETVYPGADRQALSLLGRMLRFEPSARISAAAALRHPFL
T4 sequence (P51451 whole entry): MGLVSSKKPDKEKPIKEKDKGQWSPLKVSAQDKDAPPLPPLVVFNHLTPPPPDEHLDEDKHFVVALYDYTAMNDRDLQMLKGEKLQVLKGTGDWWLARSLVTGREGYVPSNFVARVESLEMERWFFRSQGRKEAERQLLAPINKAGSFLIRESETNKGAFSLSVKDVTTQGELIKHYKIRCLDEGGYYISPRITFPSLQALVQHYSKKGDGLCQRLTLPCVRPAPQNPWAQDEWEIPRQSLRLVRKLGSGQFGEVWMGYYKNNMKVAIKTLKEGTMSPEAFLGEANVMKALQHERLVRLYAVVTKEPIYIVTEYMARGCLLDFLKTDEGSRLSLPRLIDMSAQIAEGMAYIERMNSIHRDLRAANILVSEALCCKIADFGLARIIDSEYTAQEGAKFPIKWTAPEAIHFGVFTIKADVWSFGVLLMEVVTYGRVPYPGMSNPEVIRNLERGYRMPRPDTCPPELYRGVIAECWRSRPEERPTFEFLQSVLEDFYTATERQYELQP
T8 sequence (Q9Y4K4 whole entry): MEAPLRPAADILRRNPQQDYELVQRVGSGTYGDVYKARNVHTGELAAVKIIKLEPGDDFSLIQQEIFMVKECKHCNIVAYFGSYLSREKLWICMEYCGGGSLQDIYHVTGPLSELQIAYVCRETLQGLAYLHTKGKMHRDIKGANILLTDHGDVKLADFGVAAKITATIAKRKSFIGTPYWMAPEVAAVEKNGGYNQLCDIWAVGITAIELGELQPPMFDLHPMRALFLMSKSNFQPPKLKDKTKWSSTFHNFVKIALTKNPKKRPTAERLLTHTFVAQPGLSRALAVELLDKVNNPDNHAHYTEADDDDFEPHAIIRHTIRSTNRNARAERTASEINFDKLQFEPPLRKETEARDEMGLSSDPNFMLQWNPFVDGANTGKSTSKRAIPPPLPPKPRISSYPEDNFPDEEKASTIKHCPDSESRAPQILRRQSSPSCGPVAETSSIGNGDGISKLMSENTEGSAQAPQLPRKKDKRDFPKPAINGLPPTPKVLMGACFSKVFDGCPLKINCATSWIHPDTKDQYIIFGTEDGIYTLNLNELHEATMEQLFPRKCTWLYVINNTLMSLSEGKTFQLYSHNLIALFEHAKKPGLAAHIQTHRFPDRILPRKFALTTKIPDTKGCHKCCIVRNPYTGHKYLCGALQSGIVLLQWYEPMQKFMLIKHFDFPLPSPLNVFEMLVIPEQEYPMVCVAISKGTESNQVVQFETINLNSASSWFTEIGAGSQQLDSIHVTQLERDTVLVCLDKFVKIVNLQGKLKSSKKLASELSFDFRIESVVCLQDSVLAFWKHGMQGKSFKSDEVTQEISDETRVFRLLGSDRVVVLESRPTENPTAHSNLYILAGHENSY
T3 sequence (Q06187 whole entry): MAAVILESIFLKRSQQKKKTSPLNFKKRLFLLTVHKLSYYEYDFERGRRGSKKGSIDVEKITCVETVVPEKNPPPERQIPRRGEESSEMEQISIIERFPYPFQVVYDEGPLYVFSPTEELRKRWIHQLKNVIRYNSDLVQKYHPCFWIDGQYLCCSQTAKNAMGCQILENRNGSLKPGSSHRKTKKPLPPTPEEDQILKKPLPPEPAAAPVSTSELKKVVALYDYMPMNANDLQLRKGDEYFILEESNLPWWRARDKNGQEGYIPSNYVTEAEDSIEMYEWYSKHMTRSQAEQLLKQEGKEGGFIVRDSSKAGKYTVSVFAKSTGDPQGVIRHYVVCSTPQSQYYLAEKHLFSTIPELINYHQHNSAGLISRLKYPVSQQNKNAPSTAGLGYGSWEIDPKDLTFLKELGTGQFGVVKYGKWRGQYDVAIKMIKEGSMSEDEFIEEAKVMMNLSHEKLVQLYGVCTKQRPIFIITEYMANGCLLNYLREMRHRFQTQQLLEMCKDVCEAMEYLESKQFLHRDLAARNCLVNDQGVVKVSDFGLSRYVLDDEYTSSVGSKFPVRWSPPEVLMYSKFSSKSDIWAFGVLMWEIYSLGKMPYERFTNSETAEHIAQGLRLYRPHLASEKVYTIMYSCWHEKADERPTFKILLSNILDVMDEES

Q: With `Cc1cc(Nc2nc(N)nn2C(=O)NC(C)C)ccc1Cl` [Compound 5] as the molecule, how does the “Mode of ERK5 inhibition with respect to ATP” value (recombinant human ERK5; ATP-competition study, IC50 curves at different ATP concentrations) read?
A: ATP-competitive

Q: And the IC50 (recombinant human ERK5; ERK5 IC50 at [ATP] 20 µM, [ATP] 20 µM)?
A: 2.3 µM

Q: What about the IC50 (recombinant human ERK5; ERK5 IC50 at [ATP] 40 µM, [ATP] 40 µM) of the same molecule?
A: 2.9 µM

Q: What about the IC50 (recombinant human ERK5; ERK5 IC50 at [ATP] 60 µM, [ATP] 60 µM) of the same molecule?
A: 3.1 µM

Q: What about the IC50 (recombinant human ERK5; ERK5 IC50 at [ATP] 200 µM, [ATP] 200 µM) of the same molecule?
A: 4.1 µM

Q: What about the IC50 (recombinant human ERK5; ERK5 IC50 at [ATP] 1000 µM, [ATP] 1000 µM) of the same molecule?
A: 9.9 µM

Q: And the IC50 (recombinant human ERK5; ERK5 IC50 at [ATP] 2000 µM, [ATP] 2000 µM)?
A: 14.8 µM

Q: And the IC50 (recombinant human ERK5; [2])?
A: 2.3 µM

Q: What about the IC50 (recombinant human ERK5; [ATP] 80 µM, read-out: ERK5 IC50 at [ATP] 80 µM) of the same molecule?
A: 3.4 µM

Q: And the IC50 (recombinant human ERK5; [ATP] 500 µM, read-out: ERK5 IC50 at [ATP] 500 µM)?
A: 6.3 µM

Q: What about the inhibition at 10 µM (SGKL (SGK3)) of the same molecule?
A: -11%

Q: What about the inhibition at 10 µM (BTK) of the same molecule?
A: 11%

Q: And the inhibition at 10 µM (BLK)?
A: 22%

Q: What about the inhibition at 10 µM (TXK) of the same molecule?
A: -9%

Q: And the inhibition at 10 µM (NEK6)?
A: 3%

Q: What about the inhibition at 10 µM (GRK5) of the same molecule?
A: -0.422%

Q: What about the inhibition at 10 µM (MAP4K5 (KHS1)) of the same molecule?
A: 65%

Q: What about the “Number of kinases with significant activity (greater than 80% inhibition) out of the 225 tested” value [1] of the same molecule?
A: five

Q: What about the “Kinase selectivity profile in words” value [1] of the same molecule?
A: most selective

Q: With `Cc1ncc(-c2nc(Nc3ccc(C(=O)NCCN4CCCCC4)cc3)ncc2F)n1C(C)C` [Compound 3] as the molecule, how does the IC50 (recombinant human ERK5; [2]) read?
A: 0.042 µM

Q: What about the inhibition at 10 µM (SGKL (SGK3)) of the same molecule?
A: 67%

Q: And the inhibition at 10 µM (BTK)?
A: 59%

Q: And the inhibition at 10 µM (BLK)?
A: 65%

Q: And the inhibition at 10 µM (TXK)?
A: 40%

Q: And the inhibition at 10 µM (NEK6)?
A: 12%

Q: What about the inhibition at 10 µM (GRK5) of the same molecule?
A: 39%

Q: What about the inhibition at 10 µM (MAP4K5 (KHS1)) of the same molecule?
A: 97%

Q: And the “Kinase selectivity profile in words” value [1]?
A: most promiscuous

Q: Which results are given for “XMD8-92 [Compound 2, reference compound]”?
A: Block of downstream ERK5 signalling (ERK5 signalling): able to block downstream ERK5 signalling; SGKL (SGK3) % Inhibition (SGKL (SGK3); 10 µM compound, ATP Km app): 96%; BTK % Inhibition (BTK; 10 µM compound, ATP Km app): 35%; BLK % Inhibition (BLK; 10 µM compound, ATP Km app): 38%; TXK % Inhibition (TXK; 10 µM compound, ATP Km app): 73%; NEK6 % Inhibition (NEK6; 10 µM compound, ATP Km app): 68%; GRK5 % Inhibition (GRK5; 10 µM compound, ATP Km app): 6%; MAP4K5 (KHS1) % Inhibition (MAP4K5 (KHS1); 10 µM compound, ATP Km app): 85%
